Values quoted from earlier work as cited in US20130323309A1, “Sustained Release Composition of Memantine” (LUPIN LIMITED, priority 2011, published 2013).

Conditions: aqueous media and polar solvents; memantine or a pharmaceutically acceptable salt

Solubility: highly soluble
Compound: CC12CC3CC(C)(C1)CC(N)(C3)C2 [Memantine, 1-amino-3,5-dimethyladamantane]
